According to ChEMBL document CHEMBL1151247, “Quinazolin-4-one derivatives from Streptomyces isolates” (J Nat Prod, 2004):
Calls of active or inactive are those of the source.

Key:
Format in all cases: functional, organism-based
Bacillus subtilis = test: Antibacterial activity against Bacillus subtilis
Candida albicans = test: Antifungal activity against Candida albicans
[1] = system: Streptomyces viridochromogenes; test: Antibacterial activity against Streptomyces viridochromogenes
Escherichia coli = test: Antibacterial activity against Escherichia coli
Chlorella vulgaris = test: Antialgal activity against Chlorella vulgaris
Desmodesmus subspicatus = test: Antialgal activity against Scenedesmus subspicatus
Chlorella sorokiniana = test: Antialgal activity against Chlorella sorokiniana
Staphylococcus aureus = test: Antibacterial activity against Staphylococcus aureus
Rhizomucor miehei = test: Antifungal activity against Mucor miehei

Measured: Activity

C[C@@H](O)[C@@]1(C)NC(=O)c2ccccc2N1 (relative stereo)
inactive: all assays above

C[C@@H](O)[C@]1(C)NC(=O)c2ccccc2N1 (relative stereo)
inactive: all assays above
